According to patent US7935724B2, “Thiophene and benzothiophene hydroxamic acid derivatives” (Merck HDAC Research, LLC, priority 2003, dated 2011):
Where two headings read alike, the source gives them in different places.

Experiments:
[1] = tested on: murine erythroleukemia cell line SC9; experiment: MTS assay (Cell Titer 96 Aqueous One Solution Cell Proliferation Assay); assay type: cell-based; settings: unit inferred, unit nm
Procedure: The novel compounds of the present invention were tested for their ability to inhibit proliferation of the murine erythroleukemia cell line SC9.
The MTS assay, also referred to as the Cell Titer 96 Aqueous One Solution Cell Proliferation Assay, is a calorimetric method for determining the number of viable cells in proliferation, cytotoxicity or chemosensitivity assays. The MTS reagent contains a novel tetrazolium compound [3-(4,5-dimethylthiazol-2-yl)-5-(3-carboxymethoxyphenyl)-2-(4-sulfophenyl)-2H-tetrazolium, inner salt] and electron coupling reagent (phenazine ethosulfate;PES). Murine erythroleukemia cells (SC-9) were incubated with vehicle or increasing concentrations of compound for 48 hours. Cell proliferation was quantitated by adding a small amount of the MTS reagent directly to culture wells, incubating for 1-4 hours and then recording the absorbance at 490 nm with a 96-well plate reader. The quantity of formazan product, as measured by […] absorbance, is directly proportional to the number of living cells in culture.

[2] = molecular target: T1, histone deacetylase, subtype 1 (HDAC1) (Homo sapiens, UniProt Q13547); experiment: HDAC1-Flag assay (in vitro deacetylation assay); assay type: biochemical; settings: concentration for 50% inhibition of deacetylation, substrate at Km, unit inferred, text gives nm, read-out: HDAC Inhibition
T1 construct: Flag; made in house
T1 sequence (Q13547 whole entry): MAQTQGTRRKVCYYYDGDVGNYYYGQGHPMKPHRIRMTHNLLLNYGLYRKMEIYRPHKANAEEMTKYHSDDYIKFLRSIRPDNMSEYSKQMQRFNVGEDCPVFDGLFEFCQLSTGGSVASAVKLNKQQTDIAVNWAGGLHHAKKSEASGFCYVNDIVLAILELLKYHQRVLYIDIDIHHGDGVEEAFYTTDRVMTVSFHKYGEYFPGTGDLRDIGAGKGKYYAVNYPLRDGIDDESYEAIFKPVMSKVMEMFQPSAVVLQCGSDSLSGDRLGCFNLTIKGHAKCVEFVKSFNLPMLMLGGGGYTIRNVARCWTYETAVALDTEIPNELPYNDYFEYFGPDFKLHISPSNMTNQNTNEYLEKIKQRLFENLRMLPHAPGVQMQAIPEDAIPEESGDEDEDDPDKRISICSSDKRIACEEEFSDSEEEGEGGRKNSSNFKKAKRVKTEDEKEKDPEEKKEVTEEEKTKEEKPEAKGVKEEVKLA
Procedure: Novel compounds were tested for their ability to inhibit histone deacetylase, subtype 1 (HDAC1) using an in vitro deacetylation assay. The enzyme source for this assay was an epitope-tagged human HDAC1 complex immuno-purified from stably expressing mammalian cells. The substrate consisted of a commercial product containing an acetylated lysine side chain (BIOMOL Research Laboratories, Inc., Plymouth Meeting, Pa.). Upon deacetylation of the substrate by incubation with the purified HDAC1 complex, a fluorophore is produced that is directly proportional to the level of deacetylation.

[3] = Mus musculus, SC9, 48 h, Table 3, concentration inhibiting proliferation of SC9 cells
[4] = Table 1, benzothiophene backbone
[5] = Table 3, concentration inhibiting proliferation of SC9 cells, 48 hours

Row | Compound | IC50 [1, 3] | IC50 [2, 4] | IC50 [1, 5] | IC50 ([2]; Table 2, thiophene backbone)
1 | COc1ccc(CC(=O)Nc2ccc3cc(C(=O)NO)sc3c2)cc1 [Compound 89] | 205 ± 37.5 nM | 19.5 ± 0.7 nM |  | 
2 | COc1ccc(CNCc2ccc3sc(C(=O)NO)cc3c2)cc1 [Compound 162] | 587 nM | 110 ± 14.1 nM |  | 
3 | O=C(NO)c1cc2cc(NC(=O)c3cccc4ccccc34)ccc2s1 [Compound 25] | 545 nM | 140 ± 14.1 nM |  | 
4 | COc1ccccc1CNCc1ccc2cc(C(=O)NO)sc2c1 [Compound 185] | 90 nM | 48.5 ± 6.3 nM |  | 
5 | O=C(NO)c1cc2ccc(NC(=O)c3cccc4ccccc34)cc2s1 [Compound 33] | 785 nM | 79 ± 11.3 nM |  | 
6 | O=C(CN(CC(=O)Nc1ccccc1)c1ccc2cc(C(=O)NO)sc2c1)Nc1ccccc1 [Compound 178] | 200 ± 19.7 nM | 6.5 ± 0.7 nM |  | 
7 | O=C(CN1CCCCC1)Nc1ccc2cc(C(=O)NO)sc2c1 [Compound 115] | 306 ± 78.5 nM | 38 nM |  | 
8 | CCC(C(=O)Nc1ccc2cc(C(=O)NO)sc2c1)c1ccccc1 (centres unmarked) [Compound 98] |  | 41.5 ± 2.1 nM | 225 ± 26.7 nM | 
9 | O=C(NO)c1cc2ccc(CNCCc3c[nH]c4ccccc34)cc2s1 [Compound 188] | 191 nM | 82.5 ± 16.2 nM |  | 
10 | O=C(NO)c1cc2cc(CNCc3ccccn3)ccc2s1 [Compound 142] | 714 nM | 258 ± 17 nM |  | 
11 | O=C(NO)c1cc2cc(CNCCCc3ccccc3)ccc2s1 [Compound 154] | 637 nM | 163 ± 37.4 nM |  | 
12 | COc1ccc(CNCc2ccc3cc(C(=O)NO)sc3c2)cc1 [Compound 187] | 56 nM | 23 ± 1.4 nM |  | 
13 | CCC(C(=O)Nc1ccc2cc(C(=O)NO)sc2c1)c1ccccc1 (centres unmarked) [Compound 181] |  | 59.5 ± 3.5 nM | 528 nM | 
14 | CC(C)(C(=O)Nc1ccc2cc(C(=O)NO)sc2c1)c1ccccc1 [Compound 189] | 493 nM | 72 ± 14.1 nM |  | 
15 | O=C(CN1CCN(c2ccccc2Cl)CC1)Nc1ccc2cc(C(=O)NO)sc2c1 [Compound 119] | 568 ± 227 nM | 36.6 ± 13.2 nM |  | 
16 | CN(C(=O)Cc1ccccc1)c1ccc2cc(C(=O)NO)sc2c1 [Compound 106] | 537 ± 124 nM | 74.5 ± 17.6 nM |  | 

Row | Compound | IC50 [1, 3] | IC50 [2, 4] | IC50 [1, 5] | IC50 ([2]; Table 2, thiophene backbone)
17 | COc1cccc(CNCc2ccc3sc(C(=O)NO)cc3c2)c1 [Compound 148] | 430 ± 132 nM | 100 ± 12.7 nM |  | 
18 | O=C(NO)c1cc2cc(CNCc3ccc(Cl)cc3)ccc2s1 [Compound 153] | 531 nM | 124 ± 24 nM |  | 
19 | O=C(NO)c1cc2cc(CNCCCCc3ccccc3)ccc2s1 [Compound 156] | 966 nM | 275 ± 34.6 nM |  | 
20 | CCC(C(=O)Nc1ccc2cc(C(=O)NO)sc2c1)c1ccccc1 (centres unmarked) [Compound 180] |  | 18.5 ± 2.1 nM | 140 nM | 
21 | O=C(NO)c1cc2ccc(NS(=O)(=O)c3ccc4ccccc4c3)cc2s1 [Compound 14] | 917 nM | 21.5 ± 3.5 nM |  | 
22 | O=C(Cc1ccccc1)Nc1ccc(C(=O)NO)s1 [Compound 59] | 642 nM |  |  | 63.5 ± 7.7 nM
23 | O=C(NO)c1cc2cc(CNCc3ccccc3)ccc2s1 [Compound 99] | 474 ± 65.7 nM | 144 ± 53 nM |  | 
24 | O=C(NO)c1cc2cc(NC(=O)C(c3ccccc3)c3ccccc3)ccc2s1 [Compound 39] | 666 nM | 189 ± 4.9 nM |  | 
25 | O=C(NO)c1cc2cc(CNCC3CCCCC3)ccc2s1 [Compound 164] | 545 ± 24 nM | 207 ± 38.1 nM |  | 
26 | O=C(Nc1ccc2sc(C(=O)NO)cc2c1)OCc1ccccc1 [Compound 36] | 717 nM | 119 nM |  | 
27 | O=C(CN1CCN(C(=O)OCc2ccccc2)CC1)Nc1ccc2cc(C(=O)NO)sc2c1 [Compound 91] | 899 nM | 178 ± 55.8 nM |  | 
28 | O=C(NO)c1cc2cc(CNC3CCN(Cc4ccccc4)CC3)ccc2s1 [Compound 146] | 891 nM | 524 ± 102 nM |  | 
29 | O=C(CN(Cc1ccccc1)Cc1ccccc1)Nc1ccc2cc(C(=O)NO)sc2c1 [Compound 93] | 751 nM | 316 ± 56.5 nM |  | 
30 | O=C(NO)c1cc2cc(CNCCc3ccccc3)ccc2s1 [Compound 151] | 947 nM | 203 ± 14.8 nM |  | 
31 | O=C(Cc1ccccc1)Nc1ccc2cc(C(=O)NO)sc2c1 [Compound 6] | 250 ± 57.2 nM | 11.5 ± 2.1 nM |  | 
